Laboratory results taken from ChEMBL document CHEMBL1144003, “Trypanocidal activity of a new pterocarpan and other secondary metabolites of plants from Northeastern Brazil flora” (Bioorg Med Chem, 2008).
In brackets after ≈: the same amount, converted by molar mass.

Key:
Trypanosoma cruzi = assay: Trypanocidal activity against Trypanosoma cruzi Berenice after 72 hrs; format: functional, organism-based
PBL = assay: Cytotoxicity against human PBL cells after 72 hrs by alamar blue assay; format: cell-based
B16 = assay: Antiproliferative activity against mouse B16 cells; format: functional, cell-based
HCT-8 = assay: Antiproliferative activity against human HCT8 cells; format: functional, cell-based
CCRF-CEM = assay: Antiproliferative activity against human CEM cells; format: functional, cell-based
HL-60 = assay: Antiproliferative activity against human HL60 cells; format: functional, cell-based

| SMILES | IC50 (Trypanosoma cruzi) [µg/mL] | IC50 (PBL) [µg/mL] | further results |
| --- | --- | --- | --- |
| C[C@@]12C[C@H]3OC(=O)[C@@H]1CO[C@]14O[C@]5([C@H]2C1=O)[C@@](O)(CC[C@H]1[C@H]4C[C@H]2O[C@]24CC=CC(=O)[C@]14C)C(=O)O[C@@]35C [PHYSALIN F] | 9.4 (≈ 17.9 µM) | 4.23 (≈ 8.03 µM) | IC50 (B16): 0.5 µg/mL (≈ 0.95 µM); IC50 (HCT-8): 0.5 µg/mL (≈ 0.95 µM); IC50 (CCRF-CEM): 0.5 µg/mL (≈ 0.95 µM); IC50 (HL-60): 0.5 µg/mL (≈ 0.95 µM) |
| CC(C)=CCc1c(O)ccc2c1OC[C@H]1c3cc4c(cc3O[C@@H]21)OCO4 | 13.3 (≈ 37.7 µM) | > 50 |  |
| COC1=C(OC)C(=O)C2=C(C[C@H]3[C@](C)(C2)C[C@@H]2C[C@@]23C)C1=O (relative stereo) | 1.3 (≈ 4.3 µM) | 28.4 (≈ 93.8 µM) |  |
| CCOC1O[C@@](C)([C@H]2CC(C)=C(C)C(=O)O2)[C@H]2CC[C@H]3[C@@H]4C[C@H]5O[C@]56[C@@H](O)C=CC(=O)[C@]6(C)[C@H]4CC[C@]123 (stereo partly drawn) [WITHAPHYSALIN O] | 0.3 (≈ 0.585 µM) |  |  |
| CC(C)=CCC/C(C)=C/Cc1cc2c(cc1O)OC[C@H]1c3cc4c(cc3O[C@@H]21)OCO4 | 12.2 (≈ 29 µM) | > 50 |  |
| CC1=C(C)C(=O)O[C@@H]([C@]2(C)OC(=O)[C@]34CC[C@H]5[C@@H](C[C@H]6O[C@]67[C@@H](O)C=CC(=O)[C@]57C)[C@@H]3CC[C@H]24)C1 [WITHAPHYSALIN M] | 0.7 (≈ 1.45 µM) |  |  |
| CC1=C(C)C(=O)O[C@@H]([C@]2(C)OC(=O)[C@]34CC[C@H]5[C@@H](C[C@H]6O[C@]67[C@@H](O)CCC(=O)[C@]57C)[C@@H]3CC[C@H]24)C1 [WITHAPHYSALIN N] | 6.4 (≈ 13.2 µM) |  |  |
| CC(C)=CCC/C(C)=C/Cc1c(O)ccc(C(=O)/C=C/c2ccc(O)c(O)c2)c1O | 10.6 (≈ 25.9 µM) | 23 (≈ 56.4 µM) |  |
| COc1cccc2c1C(=O)c1c(O)c3c(c(O)c1C2=O)C[C@@](O)(C(=O)CO)C[C@@H]3O[C@H]1C[C@H](N)[C@H](O)[C@H](C)O1 [DOXORUBICIN] |  | 0.97 (≈ 1.78 µM) |  |
